Assay results as given in US9233995B2, “Quinazoline derivatives and quinazoline complex protein kinase inhibitor for inhibiting multiplication of tumor cells and preparation method thereof” (INSTITUTE OF CHEMISTRY, CHINESE ACADEMY OF SCIENCES, priority 2010, dated 2016).
Read-outs that look alike come from different tables or passages of the source.

How the values were obtained:
[1] = system: human breast cancer cell line (sensitive) MCF-7/S + EGF; assay: Cytotoxicity experiment under the condition of additional EGF, SRB method; format: cell-based
Method: Human breast cancer cell line (sensitive) MCF-7/S and human non-small cell lung cancer cell line A549 are cultured in HAM′S/F-12 medium (HyClone, USA) containing 10 wt % fetal bovine serum (FBS, Hyclone, USA), and 100 ng/ml epidermal growth factor (EGF, Sigma, USA) is added to this medium. Cells described above were purchased from Cell Resource Center, Shanghai Institute for Biological Science, CAS, they are placed in a CO2 incubator and used for the experiment 3-5 days later.
(§1) Wherein, for experiment on compound cytotoxicity assay by sulforhodamine B (SRB) method: Cells in the logarithmic growth phase are collected and inoculated at 96-well plates (6500 cells/well/100 ul, RPMI1640 containing 100 ng/ml of EGF). After incubation for 24 h, compounds at gradient concentrations (200, 100, 50, 25, 12.5, 6.25, 1 (μM/L)) are added. The same volume of RPMI1640 containing 100 ng/ml of EGF is used as control group of the experiment; the blank group is only culture medium without cell. Three parallel wells are set up for each concentration group. After incubation is continued for 48 h, the cell survival rate is measured by SRB method. 50 μl 10% trichloroacetic acid (TCA) pre-cooled (4° C.) is added to each well, it is fixed for 1 hour at 4° C., washed with water for five times, and completely dried, and then 100 μl of SRB solution (Sigma, USA) at concentration of 0.4% by weight is added, and staining is performed at 37° C. in the dark for 30 min. Wash with acetic acid at a concentration of 1% by weight for 4-5 times, dry in the air, add 200 μl of Tris solution (10 mM, pH 10.5), after sufficiently dissolved, the absorbance (absorption wavelength is 570 nm) is measured in microplate reader.
(§2) The growth inhibition rate (IR) is calculated according to the following formula: IR (%)=[1−(experiment group A value−blank group A value)/(control group A value−blank group A value)]×100%, and the IC50 value is calculated using Origin 6.0 software.

[2] = system: prostate cancer cell PC-3; assay: Cytotoxicity experiment, SRB method, tumor cell proliferation; format: cell-based; conditions: read-out: IC50 (μmol/L) Prostate cancer cell PC-3
Method: (§3) Human breast cancer cell line (drug-resistant) MCF-7/A, human breast cancer cell line (sensitive) MCF-7/S, prostate cancer cell PC-3, keratinocyte Colo-16, human non-small cell lung cancer cell line A549 and etc. are cultured in RPMI1640 medium (Invitrogen, USA) containing 10 wt % fetal bovine serum (FBS, Hyclone, USA), and epidermal growth factor (EGF) at a concentration of 100 ng/ml is added to stimulate growth. After 2-3 days, cells in logarithmic growth phase are collected, and inoculated at 96 well plates (6500 cells/well/100 ul, RPMI1640 containing 100 ng/mL EGF) for 24 h, and then compound at gradient concentrations (200, 100, 50, 25, 12.5, 6.25, 1 μM/L) are added. The same volume of RPMI1640 containing 1 wt % of dimethyl sulfoxide (DMSO) is used as control group of the experiment; the blank group is only culture medium without cell. Three parallel wells are set up for each concentration group. After incubation is continued for 48 h, the cell survival rate is measured by SRB method. Results are shown in Table 2 and Table 3, respectively.
as §1, §2

keratinocyte Colo-16 = assay: as above; format: cell-based; conditions: read-out: IC50 (μmol/L) Keratinocyte Colo-16
Method: as §3, §1, §2

[3] = system: human non-small cell lung cancer cell line A549; assay: as above; format: cell-based; conditions: A549, 48 h, read-out: IC50 (μmol/L) Non-small cell lung cancer cell A549
Method: as §3, §1, §2

[4] = system: human breast cancer cell line (sensitive) MCF-7/S; assay: as above; format: cell-based; conditions: 48 h, read-out: IC50 (umol/L) Breast cancer cell (sensitive) MCF-7/S
Method: as §3, §1, §2

[5] = system: Human breast cancer cell line (drug-resistant) MCF-7/A; assay: as above; format: cell-based; conditions: 48 h, read-out: IC50 (umol/L) Breast cancer cell (drug-resistant) MCF-7/A
Method: as §3, §1, §2

[6] = Solubility (physicochemical properties, Table 1); conditions: room temperature, atmospheric pressure
[7] = Stability (physicochemical properties, Table 1); conditions: for Stability (photostability): light
[8] = biological target: T1, EGFR (Epidermal Growth Factor Receptor) (Homo sapiens, UniProt P00533); assay: Enzyme-linked immunosorbent assay (ELISA), kinase inhibitory activity (phosphorylation of PTP1B(Tyr66) biotinylated peptide substrate); format: biochemical; conditions: average of two independent parallel experiments
T1 construct: purchased CST
T1 sequence (P00533 25-1210): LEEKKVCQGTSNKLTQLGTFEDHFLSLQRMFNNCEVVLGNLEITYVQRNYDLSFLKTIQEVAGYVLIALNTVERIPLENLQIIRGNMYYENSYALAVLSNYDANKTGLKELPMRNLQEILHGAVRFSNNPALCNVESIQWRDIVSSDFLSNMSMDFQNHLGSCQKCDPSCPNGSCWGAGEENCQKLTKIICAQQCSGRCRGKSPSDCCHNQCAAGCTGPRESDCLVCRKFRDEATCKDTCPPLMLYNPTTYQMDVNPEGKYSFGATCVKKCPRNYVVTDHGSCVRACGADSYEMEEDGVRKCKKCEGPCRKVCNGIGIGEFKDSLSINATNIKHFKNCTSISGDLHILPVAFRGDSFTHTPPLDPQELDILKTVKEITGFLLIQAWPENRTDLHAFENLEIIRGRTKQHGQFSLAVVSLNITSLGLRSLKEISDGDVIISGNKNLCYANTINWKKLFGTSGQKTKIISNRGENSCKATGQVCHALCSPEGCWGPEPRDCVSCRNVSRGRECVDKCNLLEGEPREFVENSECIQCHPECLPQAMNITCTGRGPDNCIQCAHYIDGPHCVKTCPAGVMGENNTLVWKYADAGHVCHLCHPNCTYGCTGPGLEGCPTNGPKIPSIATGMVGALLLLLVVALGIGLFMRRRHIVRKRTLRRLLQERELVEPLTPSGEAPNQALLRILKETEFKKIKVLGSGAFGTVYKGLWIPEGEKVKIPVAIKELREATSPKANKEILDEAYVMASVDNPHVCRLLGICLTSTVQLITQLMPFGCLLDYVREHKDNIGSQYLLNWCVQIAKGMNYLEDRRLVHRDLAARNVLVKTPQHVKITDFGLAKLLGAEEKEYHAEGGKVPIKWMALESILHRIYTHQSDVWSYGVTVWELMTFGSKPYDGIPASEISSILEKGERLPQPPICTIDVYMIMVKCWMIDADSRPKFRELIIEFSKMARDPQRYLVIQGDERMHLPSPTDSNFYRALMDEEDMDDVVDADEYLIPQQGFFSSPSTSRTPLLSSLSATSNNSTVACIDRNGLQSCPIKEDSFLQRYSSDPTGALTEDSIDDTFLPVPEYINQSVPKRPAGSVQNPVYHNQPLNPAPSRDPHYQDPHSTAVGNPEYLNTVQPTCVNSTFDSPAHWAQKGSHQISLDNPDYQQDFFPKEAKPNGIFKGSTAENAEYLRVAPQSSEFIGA
From the text: Protein kinase assay kit: PTP1B(Tyr66) Biotinylated Peptide from CST company is used as a substrate of kinase EGFR (Epidermal Growth Factor Receptor).

[9] = Homo sapiens, MCF7S, MCF-7/S with additional EGF 100 ng/ml, 48 h, SRB, read-out: IC50 (umol/L) Breast cancer cell (sensitive) MCF-7/S + EGF
[10] = Keratinocyte, Colo-16, 48 h, SRB
[11] = MCF-7/S with additional EGF 100 ng/ml, 48 h, SRB, read-out: IC50 (umol/L) Breast cancer cell (sensitive) MCF-7/S + EGF

Row | Compound | IC50 [1, 9] | IC50 ([3]; Homo sapiens) | IC50 ([4]; Homo sapiens, MCF7S) | IC50 ([5]; Homo sapiens, MCF7a) | Solubility in DMSO [6] | Solubility in methanol and ethanol [6] | Solubility in water [6] | Stability (in air) [7] | Stability (photostability) [7] | IC50 ([2]; PC-3, 48 h, SRB) | IC50 (keratinocyte Colo-16; [10]) | IC50 [1, 11] | IC50 (keratinocyte Colo-16; Colo-16, 48 h, SRB) | IC50 [4] | IC50 [5] | IC50 [3] | IC50 [8] | other results
1 | COc1cc2ncnc(Nc3ccc(F)c(Cl)c3)c2cc1OCCn1ccnc1 [JLY1002] | > 100 µmol/L | 48.2 ± 0.51 µmol/L | > 100 µmol/L | > 100 µmol/L | Highly soluble in DMSO | soluble in water, soluble in methanol | slightly | Stable in air, | photostable | – | – | – | – | – | – | – | – | IC50 ([2]; 48 h): > 100 µmol/L; IC50 (keratinocyte Colo-16; Keratinocyte, 48 h): > 100 µmol/L
2 | COc1cc2ncnc(Nc3ccc(F)c(Cl)c3)c2cc1OC [LQ1001, reference compound] | 53.3 ± 3.12 µmol/L | > 100 µmol/L | > 100 µmol/L | > 100 µmol/L | Highly soluble in DMSO | soluble in water, soluble in methanol | slightly | Stable in air, | photostable | > 100 µmol/L | 88.2 ± 3.98 µmol/L | – | – | – | – | – | – | –
3 | Cl.[Cl-].[Cl-].[Cl-].[Ru+3].c1c[nH]cn1.c1c[nH]cn1 [NAMI-A, reference compound] | – | – | – | – | – | – | – | – | – | > 100 µmol/L | – | > 100 µmol/L | > 100 µmol/L | > 100 µmol/L | > 100 µmol/L | – | – | –
4 | Cc1ccc(C(C)C)cc1.F[P-](F)(F)(F)(F)F.[Cl][Ru-]1[NH2+]CC[NH2+]1 [Pcy-Ru, reference compound] | – | – | – | – | – | – | – | – | – | > 100 µmol/L | – | 21.8 ± 1.73 µmol/L | 14.3 ± 1.5 µmol/L | 13 ± 3.37 µmol/L | > 100 µmol/L | 17.3 ± 0.76 µmol/L | – | –
5 | CC(=O)O[C@H]1C(=O)[C@@]2(C)[C@H]([C@H](OC(=O)c3ccccc3)[C@]3(O)C[C@H](OC(=O)[C@H](O)[C@@H](NC(=O)c4ccccc4)c4ccccc4)C(C)=C1C3(C)C)[C@]1(OC(C)=O)CO[C@@H]1C[C@@H]2O [Taxol, reference compound] | 0.029 µmol/L | 4.07 ± 1.63 µmol/L | – | 0.44 ± 0.5 µmol/L | – | – | – | – | – | 0.74 ± 0.18 µmol/L | 1.06 ± 0.31 µmol/L | – | – | – | – | – | – | –
6 | COc1cc2ncnc(Nc3ccc(F)c(Cl)c3)c2cc1OCCNCCN [ZW1001, 6-(2-(2-aminoethylamino)ethoxy)-4-(3-Chloro-4-fluoro-phenylamino)-7-methoxy quinazoline] | 36.3 ± 5.77 µmol/L | 51 ± 1.02 µmol/L | 38.34 ± 0.1 µmol/L | > 100 µmol/L | Highly soluble in DMSO | soluble in water, soluble in methanol | slightly | Stable in air, | photostable | 38.4 ± 2.36 µmol/L | > 100 µmol/L | – | – | – | – | – | 0.0046 µM | –
7 | COc1cc2ncnc(Nc3ccc(F)c(Cl)c3)c2cc1OCCCNCCN [ZW1002, 6-(3-(2-aminoethylamino)propoxy)-4-(3-Chloro-4-fluoro-phenylamino)-7-methoxy quinazoline] | 15.9 ± 1.15 µmol/L | 57.4 ± 1.98 µmol/L | 16.4 ± 0.62 µmol/L | > 100 µmol/L | Highly soluble in DMSO | soluble in water, soluble in methanol | slightly | Stable in air, | photostable | 13.6 ± 0.85 µmol/L | 14.5 ± 0.37 µmol/L | – | – | – | – | – | 0.0072 µM | –
8 | COc1cc2ncnc(Nc3ccc(F)c(Cl)c3)c2cc1OCC[N]1CC[NH][Ru+]1([Cl])[c]1ccccc1.F[P-](F)(F)(F)(F)F (stereo not drawn) [ZW2002] | – | – | – | – | – | – | – | Stable in air, | photostable | > 100 µmol/L | – | > 100 µmol/L | 42.1 ± 2.55 µmol/L | > 100 µmol/L | > 100 µmol/L | > 100 µmol/L | 0.0938 µM | –
9 | COc1cc2ncnc(Nc3ccc(F)c(Cl)c3)c2cc1OCCC[N]1CC[NH][Ru+]1([Cl])[c]1cc(C(C)C)ccc1C.F[P-](F)(F)(F)(F)F (stereo not drawn) [ZW2004] | – | – | – | – | Highly soluble in DMSO | soluble in water, soluble in methanol | slightly | Stable in air, | photostable | 79.9 ± 7.44 µmol/L | – | 33.9 ± 1.39 µmol/L | 58.2 ± 1.49 µmol/L | 86.8 ± 6.66 µmol/L | > 100 µmol/L | – | 0.106 µM | IC50 ([1]; MCF-7/S+EGF, read-out: IC50 under the test condition of MCF-7/S+EGF inhibiting the proliferation of tumor cells): 33.9 µmol/L; IC50 ([1]; MCF-7/S+EGF, read-out: IC50 under the test conditions of MCF-7/S+EGF inhibiting tumor cell proliferation): 33.9 µmol/L
10 | COc1cc2ncnc(Nc3ccc(F)c(Cl)c3)c2cc1OCCC[N]1CC[NH][Ru+]1([Cl])[c]1ccccc1.F[P-](F)(F)(F)(F)F (stereo not drawn) [ZW2005] | – | – | – | – | – | – | – | Stable in air, | photostable | 38.3 ± 3.56 µmol/L | – | 17.4 ± 1.09 µmol/L | 39.8 ± 4.85 µmol/L | > 100 µmol/L | > 100 µmol/L | 45.1 ± 2.34 µmol/L | 0.174 µM | –
